Literature values, collected in US4904678A, “Sickle cell anemia control” (Norris; Jerome J., priority 1987, dated 1990).

System: erythrocytes
Conditions: about 4 mols of potassium cyanate incorporated per mol of hemoglobin tetramer

## N#CO [potassium cyanate]
  Erythrocytes prevented from sickling: up to 80%
